According to article PMC5861127, “3-pyridyl inhibitors with novel activity against Trypanosoma cruzi reveal in vitro profiles can aid prediction of putative cytochrome P450 inhibition” (Scientific Reports, 2018):
Where “and” joins values, the source holds several entries; their conditions need not be identical. Identical values can stand only once. Like-named read-outs stand apart in the source and are kept apart here.

How the values were obtained:
T. cruzi amastigotes [1] = assay: T. cruzi image-based assay (48 hour, intracellular amastigotes in 3T3 host cells); type: cell-based, Trypanosoma cruzi; conditions: for Emax: 48 h; for IC50: intracellular amastigotes in 3T3 cells, retested from DMSO stocks (CF from solid sample, temporal experiments)
Procedure: The assay was performed as previously described. […] One wash was undertaken by using a Multidrop plate dispenser and two washes with a Bravo liquid handling device (Agilent Technologies, USA). Five microlitres of compound were added to plates and incubated for 48 hours. Cells were then fixed and stained with Hoechst (Life Technologies, USA) and HCS CellMaskTM Green (Life Technologies, USA) and image acquisition was performed an OperaTM High Content Screening System (PerkinElmer, USA) at 20 times magnification. […] The maximum activity achievable (Emax) of compounds was determined by taking (or as close to, if concentrations in the Emax were limited) the percentage activity at the mid concentration within the plateau of activity in the concentration response curve (see Supplemental Fig. 1, example NFX). […] Final assay concentrations of compounds ranged from 4.03 μM to 4.03 × 10^-3 μM. […] This was only undertaken for the amastigote assay. Dilutions were prepared with a multichannel pipette ([…], Thermo Fisher Scientific, USA) in 384-well polypropylene plates (Corning, NY, USA). […] Compound IC50 values in the TcCYP51 in vitro assay were calculated in GraFit (Erithacus software) by non-linear slope analysis. All data are presented as mean ± standard deviation. The significance of % clearance of parasites at compound Emax concentrations was calculated in Prism 5.0, using an unpaired student's t-test.

3T3 host cells = assay: 3T3 host cell activity in the T. cruzi image-based assay; set-up: species or system mouse; conditions: for CC50: Mus musculus, NIH3T3, 48 hours, no activity up to top concentration, read-out: IC50 value against 3T3 cells used for SI; for SI to 3T3: ratio 3T3 host cell / parasite IC50, 48 hours
Procedure: To calculate compound activity, 12.0 µM NFX was used as a positive control and 0.366% DMSO was used as a negative control. To determine the activity against the host cell, 30.0 µM of puromycin was used as a positive control. The percentage normalised activity was determined using the equation outlined in our previous publication[19] and the reproducibility of the assay was determined using the Z’-factor[20].
The assay was performed as previously described. Briefly, 3T3 cells were seeded at a concentration of 1 × 10^3 cells in 50 µL per well into collagen I coated 384-well plates (PerkinElmer, USA). Following 24 hours incubation at 37 °C and 5% CO2, 10 µL of parasites were added to wells at a multiplicity of infection (MOI) of 5:1 (parasites: host cells) with a Multidrop™ dispenser (Thermo Fisher, USA). Following 24 hours incubation, wells were washed with PBS (containing Mg^2+ and Ca^2+) to remove uninfected parasites. One wash was undertaken by using a Multidrop plate dispenser and two washes with a Bravo liquid handling device (Agilent Technologies, USA). Five microlitres of compound were added to plates and incubated for 48 hours. Cells were then fixed and stained with Hoechst (Life Technologies, USA) and HCS CellMask™ Green (Life Technologies, USA) and image acquisition was performed an Opera™ High Content Screening System (PerkinElmer, USA) at 20 times magnification. The positive control was 12.0 µM NFX and the negative control was 0.366% DMSO.

HEK293 cells = assay: HEK293 assay (resazurin); type: cell-based, human; conditions: 120 hours; HEK293 / epimastigote IC50; NA = SI cannot be determined, tested to 79.4 µM
Procedure: […] […] Plates were incubated for 24 hours before the addition of compounds. […] The positive control was 32.5 μM puromycin and the negative control was 0.433% DMSO, slightly different to the T. cruzi assay due to the change in volume, whilst utilising the same stock control plate. […] […] […] This was only undertaken for the amastigote assay. Dilutions were prepared with a multichannel pipette ([…], Thermo Fisher Scientific, USA) in 384-well polypropylene plates (Corning, NY, USA).

T. cruzi amastigotes [2] = assay: 24 hour image-based assay; type: cell-based; conditions: Trypanosoma cruzi; for IC50: n of 2, read-out: IC50 value, 24 hours incubation; for Emax: plateau/Emax concentrations, read-out: % activity at the Emax, 24 hours incubation
Procedure: Compounds were added to assay plates as described for the 48 hour assay, although incubation time was decreased to 24 hours. […] Two experimental replicates were performed.

T. cruzi amastigotes [3] = assay: 96 hour image-based assay; type: cell-based, Trypanosoma cruzi; conditions: for Emax: Trypanosoma cruzi
Procedure: The assay format was the same as the 48 hour assay, although plates were incubated for 96 hours. […] Two extra wash steps were included to remove as many extracellular parasites as possible to reduce impact on determination of intracellular parasites. […] Two experimental replicates were undertaken.

T. cruzi amastigotes [4] = assay: Wash-off assay to assess parasite survival following compound removal; type: cell-based; conditions: Trypanosoma cruzi, 48 hours incubation, additional 72 hours without compound, read-out: percentage activity at the Emax, wash-off assay
Procedure: The T. cruzi assay 48 hour assay was performed. Following, plates were washed 5 times with PBS (containing Mg^2+ and Ca^2+) on a Bravo liquid handler to remove compound pressure. Plates were incubated for an additional 72 hours and wells were washed 5 times before fluorescent labels were added. Plates were imaged on an Opera confocal-based high-content system with 7 fields per well acquired, at 20 times magnification. […] Four experimental replicates were undertaken.

T. cruzi epimastigotes = assay: 120 hour T. cruzi epimastigote assay (PrestoBlue); type: cell-based; conditions: Trypanosoma cruzi
Procedure: Additions were made with a Multidrop dispenser and compounds were added directly following parasite addition. Plates were incubated for 112 hours before the addition 10 µL of PrestoBlue® viability reagent (Thermo Fisher, USA). […] The positive control was NFX at a final concentration of 14.20 µM and 0.433% DMSO as a negative control.

recombinant TcCYP51 = recombinant TcCYP51 (Trypanosoma cruzi, UniProt Q7Z1V1); type: biochemical
Sequence of recombinant TcCYP51 (Q7Z1V1 whole entry): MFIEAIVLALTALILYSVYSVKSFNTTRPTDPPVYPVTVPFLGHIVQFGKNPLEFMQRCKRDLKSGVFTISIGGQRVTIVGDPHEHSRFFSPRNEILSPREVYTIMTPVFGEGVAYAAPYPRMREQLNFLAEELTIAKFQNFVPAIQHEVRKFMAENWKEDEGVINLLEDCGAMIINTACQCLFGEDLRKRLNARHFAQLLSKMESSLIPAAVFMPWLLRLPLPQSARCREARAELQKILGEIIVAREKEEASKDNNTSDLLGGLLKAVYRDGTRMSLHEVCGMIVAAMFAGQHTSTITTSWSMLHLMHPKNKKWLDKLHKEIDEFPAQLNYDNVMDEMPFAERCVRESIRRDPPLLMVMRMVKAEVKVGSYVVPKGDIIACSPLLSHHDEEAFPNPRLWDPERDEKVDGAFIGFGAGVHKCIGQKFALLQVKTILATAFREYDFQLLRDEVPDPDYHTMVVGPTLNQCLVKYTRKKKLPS
Procedure: The activity of compounds against TcCYP51 was determined at the University of Dundee as outlined previously. This assay utilises the fluorogenic probe benzyloxymethyloxycyanocoumarin (BOMCC), activated by TcCYP51. […] Preliminarily testing of MMV001239 was performed using this assay, with 1 replicate concentration response curve generated to establish whether it was a putative TcCYP51 inhibitor.
Compound IC50 values in the T. cruzi and HEK293 cell-based assays were determined using Prism 5.0 (GraphPad software), derived by a sigmoidal concentration response (variable slope) analysis. Compound IC50 values in the TcCYP51 in vitro assay were calculated in GraFit (Erithacus software) by non-linear slope analysis. All data are presented as mean ± standard deviation. The significance of % clearance of parasites at compound Emax concentrations was calculated in Prism 5.0, using an unpaired student’s t-test.

[5] = DMSO stocks (CF from solid sample), relative to nifurtimox control
[6] = Trypanosoma cruzi, DMSO stocks (CF from solid sample), relative to nifurtimox control, read-out: % activity (Emax)
[7] = Trypanosoma cruzi, NIH3T3, 48 h
[8] = difference 96 hours minus 48 hours

| IC50 (T. cruzi epimastigotes) [nM] | Structure (SMILES) | % activity (Emax) (T. cruzi amastigotes [1]; [5]) [%] | Emax (T. cruzi amastigotes [1]; [6]) [%] | IC50 (T. cruzi amastigotes [1]; [7]) [nM] | CC50 (3T3 host cells) [nM] | SI to 3T3 (3T3 host cells) | SI to HEK293 cells (HEK293 cells) | Emax (T. cruzi amastigotes [2]) [%] | Emax (T. cruzi amastigotes [4]) [%] | also measured |
| --- | --- | --- | --- | --- | --- | --- | --- | --- | --- | --- |
| 1110 ± 131 | CC1CS(=O)(=O)CCN1/N=C/c1ccc([N+](=O)[O-])o1 (centres unmarked) [NFX, nifurtimox] | 102 ± 1.41 | 100 | 709 ± 161 | > 127000 | >179 | >136 | 100 | 100 | IC50 (T. cruzi amastigotes [2]): 1200 ± 21.3 nM; increase in activity at the Emax from 48 to 96 hours incubation (T. cruzi amastigotes [3]; [8]): no difference |
| 566 ± 141 | COc1ccc(C[C@H](N)C(=O)N[C@H]2[C@@H](O)[C@H](n3cnc4c(N(C)C)ncnc43)O[C@@H]2CO)cc1 [PURO, puromycin] | – | – | 2010 ± 329 | – | 1.36 | 0.386 | – | – | – |

Further lines, the compound ahead of its results:

| Structure (SMILES) | IC50 (T. cruzi epimastigotes) [nM] | % activity (Emax) (T. cruzi amastigotes [1]; [5]) [%] | Emax (T. cruzi amastigotes [1]; [6]) [%] | IC50 (T. cruzi amastigotes [1]; [7]) [nM] | CC50 (3T3 host cells) [nM] | SI to 3T3 (3T3 host cells) | SI to HEK293 cells (HEK293 cells) | Emax (T. cruzi amastigotes [2]) [%] | Emax (T. cruzi amastigotes [4]) [%] | also measured |
| --- | --- | --- | --- | --- | --- | --- | --- | --- | --- | --- |
| O=C(Cn1ccnc1[N+](=O)[O-])NCc1ccccc1 [BZ, benznidazole] | 5780 ± 477 | 99.5 ± 2.12 | 100 | 3560 ± 2340 | > 127000 | >35.7 | >26.1 | 100 | 100 | IC50 (T. cruzi amastigotes [2]): 7560 ± 2370 nM; increase in activity at the Emax from 48 to 96 hours incubation (T. cruzi amastigotes [3]; [8]): no difference |
| CCc1ccc(NC(=O)N(Cc2cccnc2)Cc2ccccc2Cl)cc1 [Compound 1, 1-(2-Chlorobenzyl)-3-(4-ethylphenyl)-1-(3-pyridinylmethyl)urea] | – | – | 84.5 ± 6.36 | 3480 ± 622 | > 18300 | >5.26 | – | – | – | – |
| CCOC(=O)C(=O)NCC(c1cccnc1)N1CCN(c2ccccc2)CC1 (centres unmarked) [Compound 2] | – | 76.5 ± 3.54 | – | – | – | >8.43 | – | – | – | IC50 (T. cruzi amastigotes [1]): 2170 ± 499 nM; IC50 (recombinant TcCYP51; BOMCC probe, read-out: IC50 value against recombinant TcCYP51): 562 ± 130 nM |
| CC(=O)N1CCC(N(Cc2cccnc2)C(=O)Nc2ccc(Cl)cc2)CC1 [Compound 3, 1-(1-Acetyl-4-piperidinyl)-3-(4-chlorophenyl)-1-(3-pyridinylmethyl)urea] | – | – | 70.5 ± 0.707 | 1290 ± 368 | > 18300 | >14.2 | – | – | – | – |
| CCOc1ccc(NC(=O)N(Cc2ccc(C)cc2)Cc2cccnc2)cc1 [Compound 4, 3-(4-Ethoxyphenyl)-1-(4-methylbenzyl)-1-(3-pyridinylmethyl)urea] | – | – | 76 ± 1.41 | 1400 ± 79.9 | > 18300 | >13.1 | – | – | – | – |
| Cc1ccc(CN(Cc2cccnc2)C(=O)Nc2ccc(Cl)c(Cl)c2)cc1 [Compound 5, 3-(3,4-Dichlorophenyl)-1-(4-methylbenzyl)-1-(3-pyridinylmethyl)urea] | – | – | 88 ± 9.9 | 1800 ± 3.54 | > 18300 | >10.0 | – | – | – | IC50 (T. cruzi amastigotes [1]): 1820 ± 3.54 nM |
| COc1ccc2sc(N(Cc3cccnc3)C(=O)c3ccc(C#N)cc3)nc2c1 [MMV001239] | – | – | – | – | – | – | – | – | – | percentage activity at the Emax, 48 hours incubation (temporal experiments, Fig. 3) (T. cruzi amastigotes [1]; n of 4): 85 ± 6.4% and 84.8%; IC50 (recombinant TcCYP51; single concentration response curve, read-out: IC50 value against recombinant TcCYP51, preliminary): 46 nM |
| CC[C@@H]([C@H](C)O)n1ncn(-c2ccc(N3CCN(c4ccc(OC[C@@H]5CO[C@@](Cn6cncn6)(c6ccc(F)cc6F)C5)cc4)CC3)cc2)c1=O [POSA, posaconazole] | – | – | 70 ± 8.49 | – | 1000 | – | – | < 50 | 94 | Emax (T. cruzi amastigotes [1]; Trypanosoma cruzi, n of 4, read-out: percentage activity at the Emax, 48 hours incubation (temporal experiments, Fig. 3)): 75.3%; Emax (T. cruzi amastigotes [3]; 96 hours, n of 2, read-out: reduction in infected cells at the Emax, 96 hours exposure): 96.5%; Emax (T. cruzi amastigotes [3]; difference 96 hours minus 48 hours, read-out: increase in activity at the Emax from 48 to 96 hours incubation): 21.3% |
